Compound	logP
CC1CCC(C(C)C)C(O)C1 (centres undefined)	3.4
CC1=CCC2C(C1=O)C2(C)C (centres undefined)	2.42
C=C(C)C1CCC2(C)OC2C1 (centres undefined)	3.2
C=C(C)[C@@H]1CC=C(C=O)CC1	3.13
CC(C)=CCC/C(C)=C/CO	3.56
CC1(C)[C@H]2CC[C@](C)(C2)[C@H]1O	3.17
CC12CCC(C1)C(C)(C)C2=O (centres undefined)	3.52
CC1(C)C2CCC(CN)C1C2 (centres undefined)	2.05
CC(C)[C@@H]1CC[C@@H](C)CC1=O	3.05
CC1=CCC(O)(C(C)C)CC1 (centres undefined)	3.26
C=C(C)C1CC=C(C)C(O)C1 (centres undefined)	3.12
CC(=O)OC(C)(C)C1CC=C(C)CC1 (centres undefined)	3.96
CC1=CCC(C(C)(C)O)C[C@@H]1O (some centres undefined)	1.81
C=C1CCC2CC1C2(C)C (centres undefined)	4.16
C=C1[C@H]2CC[C@H](C2)C1(C)C	4.22
C=CC1(C)CCC(C(C)(C)O)O1 (centres undefined)	2.43
CC(=O)OC/C=C(\C)CCC=C(C)C	4.04
CC=Cc1ccc(O)c(OC)c1	3.04
CC(=O)OC1CC(C)CCC1C(C)C (racemic)	4
CC1=CC=C(C(C)C)CC1	4.25

Compound	logP
CC(C)C12CCC(C)(CC1)O2	2.97
CC1=CC(=O)C(C(C)C)CC1 (centres undefined)	2.85
CC1=CC(=O)[C@H]2C[C@@H]1C2(C)C	2.23
Cc1ccc(C(C)C)cc1O	3.49
C=C(C)C1CCC(C)C(O)C1 (centres undefined)	3.21
CC(=O)/C=C/C1C(C)=CCCC1(C)C (centres undefined)	3.85
C=C(C)C1CCC(C)C(=O)C1 (centres undefined)	2.85
CC(C)=CCC[C@@H](C)CC=O	3.83
CC1(C)C2CC=C(CO)C1C2 (centres undefined)	3.22
C=CC(C)(CCC=C(C)C)OC(C)=O (centres undefined)	3.93
CC1(C)[C@@H]2CC[C@@]1(C)[C@H](O)C2	3.24
CC1=CCC2C(C1)C2(C)C (centres undefined)	4.38
CC1(C)C2CC=C(C=O)C1C2 (centres undefined)	2.98
CC12CCC(CC1)C(C)(C)O2	2.74
C=C(C)C1CC=C(CO)CC1 (centres undefined)	3.17
C=C(C)[C@@H]1CC=C(C)C(=O)C1	2.71
CC1=CC2C(CC1)C2(C)C (centres undefined)	4.44
CC1=CC(O)C2CC1C2(C)C (centres undefined)	3.16
CC(C)=C1CC[C@@H](C)CC1=O	3.08

— the OPERA property sets (Mansouri et al. 2018)
